Results from patent US20250161309A1, “TOPICAL COMPOSITIONS AND USES THEROF” (TOPADUR PHARMA AG, priority 2022, published 2025).

System: C57BL/6 mouse model of alopecia
Test: Topical administration and hair growth in C57BL/6 mouse model of alopecia (telogen phase, clipped dorsal skin)
Format: in vivo
Conditions: for animals with visual melanogenesis in peeled skin: end of study; for day of skin colour change from pink to light grey (transition from telogen to anagen phase): after hair growth induction; for adverse effects in relation to general health or body weight: topical twice daily, 5 days/week, 4 weeks, compared to vehicle group
Text: Dorsal hair of C57BL/6 mouse is known to have a time synchronized hair cycle. From about 18-21 days of age (2-3 weeks old) and 47-95 days of age (6-14 weeks old), the dorsal hair are in the telogen/quiescent phase (visually pink skin) [Lee B H, Lee J S, Kim Y C. Hair growth-promoting effects of lavender oil in C57BL/6 mice. Toxicol Res. (2016) 32(2):103-108; Choi H I, Kang B M, Jang J, Hwang S T, Kwon O. Novel effect of sildenafil on hair growth. Biochem Biophys Res Commun. (2018) 505(3):685-691]. C57BL/6 mouse therefore is a well-established model for studying hair growth promotion.
Male and female C57BL/6 mice of 6 to 9 weeks of age in stable telogen phase of hair growth cycle were used (obtained from Vivo Bio Tech Ltd, Telangana, India).
50 μL of a clear solution of respective 0.02%, 0.002% and 0.0002% (w/v) concentrations of Cpd 1 in the corresponding vehicle (PEG-400:EtOH/7:3) (PEG-400: Central Drug House Ltd. Dehli, India; Ethanol: Changshu Hongsheng fine chemicals Co. Ltd. China) and the positive control, 2% solution (female) or 5% (male) (w/v) Minoxidil (Chemieliva, China) in the corresponding vehicle (PEG-400:EtOH/7:3) were topically applied to the clipped area on the dorsal back of the mice. The solutions covered a circular area of approximately 2 cm^2. The treatment regimen was twice daily application for 5 days/week for total of 4 weeks.
The selected animals on day 1 weighted on average 20.05 g±0.17 ranging from 19.8 to 20.2 g. The hair on the dorsal back (approx. 4×4 cm^2) of these animals were clipped without touching the skin of the animal, using an electric clipper, on day 0 before the treatment with Cpd 1 and the hair was collected. The treatment followed by visual analysis for anagen onset, skin color change and appearance of any hair growth were monitored. After completion of the experiment, the dorsal skin of all the animals was removed and visual melanogenesis was reported. The skin sections were then preserved in 10% formalin solution for further histopathology analysis.
Animals were observed during 30 days and the hair growth score was recorded on daily basis. The criteria for scoring of hair growth is as follows: no hair growth, pink skin—score 0; skin colour changes from pink to grey/light grey without visible hair growth—score 0.5 onset of anagen (skin colour changes from grey/light grey to dark grey/black without visible hair growth)—score 1; sparse hair growth—score 1.5; diffuse short hair growth—score 2, moderate hair growth—score 2.5 and dense, normal coat hair—score 3 (Lee B H, Lee J S, Kim Y C. Hair growth-promoting effects of lavender oil in C57BL/6 mice. Toxicol Res. (2016) 32(2):103-108).
Photographs of the animals were captured before the initiation and during the course of the study.
After completion of the experiments all animals were sacrificed by euthanasia (Choi H I, Kang B M, Jang J, Hwang S T, Kwon O. Novel effect of sildenafil on hair growth. Biochem Biophys Res Commun. (2018) 505(3):685-691). The dorsal skin of each animal was then removed by peeling. The peeled skin was spread and checked visually for the induction of melanogenesis indicated by visual blackening on the reverse side of the skin. The skin samples were evenly spread on a pre-labelled glass slide and kept in 10% formalin until further use. Later, the skin samples were embedded in paraffin and sectioned at 5 microns using a microtome and the corresponding slides per animal were prepared. The slides obtained were used for Haematoxylin & Eosin (H&E) staining and in the transverse and longitudinal sections' photomicrographs data, the total number of follicles in the dermis and the sub cutis were determined for each animal. The skin thickness was measured using Image J 1.44 software.
The statistical analyses were performed using GraphPad Prism 9.0.0 software. Statistical significance was determined by One-way or Two-Way ANOVA followed by Tukey's multiple comparison test. […]

CCCOc1ccc(S(=O)(=O)N2CCC(CCO[N+](=O)[O-])(CCO[N+](=O)[O-])CC2)cc1-c1nc2c(CCC)cn(CC)c2c(=O)[nH]1 [Cpd 1, (1-((3-(5-ethyl-4-oxo-7-propyl-4,5-dihydro-3H-pyrrolo[3,2-d]pyrimidin-2-yl)-4-propoxyphenyl)sulfonyl)piperidine-4,4-diyl)bis(ethane-2,1-diyl) dinitrate]
number of follicles in the subcutis layer of the skin and total follicle counts compared to control group (female mice): considerable higher number
animals with visual melanogenesis in peeled skin (female mice, 0.0002% (w/v)): 2/5
anagen hair follicles (histology, H&E) compared to vehicle and 2% Minoxidil (female mice, 0.0002% and 0.002% groups): more
day of skin colour change from pink to light grey (transition from telogen to anagen phase) (female mice, 0.002% (w/v)): 10 day
hair growth score among treatment groups (female mice, 0.002% (w/v), at day 30, followed by low dose groups and Minoxidil group): maximal
animals with visual melanogenesis in peeled skin (female mice, 0.002% (w/v)): 2/5
hair growth (score) compared to vehicle group (female mice, 0.002% (w/v), from day 26 on): significantly higher
skin thickness compared to vehicle and 2% Minoxidil groups (female mice, Cpd 1 treatment): increased
area of black skin compared to control groups (female mice, at day 24): larger
adverse effects in relation to general health or body weight (female mice): No adverse effects
number of follicles in the subcutis layer of the skin and total follicle counts compared to control group (male mice): considerable higher number
skin thickness compared to vehicle group (male mice, 0.002% (w/v)): increased
hair growth (score) compared to vehicle (male mice, 0.002% (w/v) in PEG-400:EtOH/7:3, from day 5 on): significantly higher
day of skin colour change from pink to light grey (transition from telogen to anagen phase) (male mice, 0.002% (w/v)): 10 day
hair growth compared to vehicle group (male mice, 0.002% (w/v), at day 22): significantly higher
animals with visual melanogenesis in peeled skin (male mice, 0.002% (w/v)): 2/5
hair growth (score) compared to 5% Minoxidil (male mice, 0.002% (w/v), from day 15): significant increase
anagen hair follicles (histology, H&E) (male mice, Cpd 1-treated groups): more
adverse effects in relation to general health or body weight (male mice): No adverse effects
